# Measurements as given in patent US8143227B2, “Azithromycin for treatment of skin disorders” (priority 2008, dated 2012).
# Read-outs that look alike come from different tables or passages of the source.
# What was measured:
# acne [1] = settings: Kus 2005, cited from earlier work
# [2] = Additional low dosage regimens, adverse effects; format: in vivo, human
# Method: The numbers of facial inflammatory lesions: papules, pustules, and nodules, and non-inflammatory lesions: open and closed comedones, were counted at the beginning of treatment and again after 3 weeks of treatment and after 6 weeks of treatment. Additionally, nodules were counted independently at each of these visits. Additionally, during the treatment study, each subject reported the occurrence of any adverse effects. The results of this study for the 25 mg/day regimen are shown in Table 7 and for the 80 mg every other day regiment in Table 8. In these tables, the numbers represent the mean number of lesions in the four subjects of each group. The % decrease from Day 0 was calculated as the mean of the differences for each of the parameters (inflammatory lesions, non-inflammatory lesion and nodules) for each individual subject on Day 21 and Day 42.
# [3] = Azithromycin levels in skin (follicular biopsy); format: in vivo, human; settings: for Skin Concentration (median): follicular biopsy
# Method: Standardized follicular biopsy samples, representative of the pilosebaceous unit of the skin, were obtained from the upper back from each of the subjects of Example 1 on study days 0, 21, 42, and 70. The samples were analyzed to determine the tissue level of azithromycin in each biopsy sample.
# acne [4] = settings: 500 mg/day for 4 days in four cycles every 10 days; Gruber 1998; cited from earlier work
# acne [5] = settings: Elewski, cited from earlier work
# [6] = Azithromycin levels in plasma; settings: for average azithromycin plasma level at steady state: steady state conditions; for AUC / AUC(0-t) / Cmax: human, plasma, po
# Method: Plasma levels of azithromycin were determined as follows. Thirty-nine patients were randomized into one of three treatment groups. Each patient received 40 mg (n=13), 80 mg (n=11), or 120 mg (n=15) of oral azithromycin daily. After the initial dose on day 0, a second dose was not administered until 72 hours later, so as to permit measurement of plasma levels based on a single dose and determination of pharmacokinetic parameters. Blood samples from each patient were taken at times equal to 0 (before dosing), 1, 2, 3, 4, 6, 8, 24, 48, and 72 hours after the initial oral dose. Following 72 hours, each patient received azithromycin daily for the remainder of six weeks (42 days). Blood samples were also taken at times equal to 0 hours (before dosing) and 3 hours after dosing on day 21, and at times equal to 0, 1, 2, 3, 4, 6, 8, and 24 hours following the last dose given on day 42. Plasma samples obtained from the blood samples were stored at −20° C. or lower after collection until processing and analysis.
# The amount of azithromycin in plasma was quantified using a validated high pressure liquid chromatographic assay with mass spectroscopy detection. Standards and samples were treated, by pipet addition, with 10.0 microliter of 1:1 acetonitrile/water. The standards and samples were then treated, by pipet addition, with 10.0 microliter of an Azaerythromycin A internal standard solution, followed by the addition of 2.0 mL of the mobile phase, which contained a 250:150:100:0.5:0.1 mixture of ethyl acetate, methanol, acetonitrile, formic acid and morpholine. After tightening Teflon caps onto the extraction jars containing the treated standards and samples, the jars were rotated for 2 hours at 1 rps. Next, 0.20 mL aliquots were removed from each jar and transferred to HPLC autosampler vials, and the vials capped and placed in the autosampler tray for LC-MS-MS analysis. A 5 microliter aliquot was injected from each vial into a suitable high pressure liquid chromatograph (HPLC) with suitable mass spectrophotometry-mass spectrometery detection, such as a Sciex API 3000 LC-MS-MS (GenTech Scientific, Inc., Arcade, N.Y.) with heated nebulizer source. The column used was PVA-Sil, 5 micron, 4.0×50 mm cartridge (Waters Corporation, Milford, Mass.). The flow rate was 1 ml/minute. To determine the amount of azithromycin, the peak area of the m/z 750→592 azithromycin product ion was measured against the peak area of the m/z 736→578 azaerythromycin A internal standard product ion.
# Plasma azithromycin concentrations were tabulated for each of the subjects for each dose group 40 mg/day, 80 mg/day, and 120 mg/day, respectively. The pharmacokinetic evaluation was based on individual plasma concentration-time data of azithromycin and was performed using model-independent analysis methods within WinNonlin™ version 5.0.1 (Pharsight Corporation, Mountain View, Calif.). […] Cmax, the maximum plasma concentration, was obtained directly from the concentration-time data. AUClast, the area under the plasma concentration-time curve from time 0 to time t (the time of last quantifiable plasma concentration), was calculated using the linear trapezoidal rule from predose to the last quantifiable plasma concentration. AUC24, the area under the plasma concentration-time curve from time 0 to time t=24 hours, was calculated in a manner similar to the calculation for AUClast except from predose to 24 hours.
# Streptococcus pyogenes = settings: Neu 1991; cited from earlier work
# P. acnes = settings: concentration that inhibits 90% of growth of the organism; Neu 1991; cited from earlier work
smiles,measurement,setting,value
"CC[C@H]1OC(=O)[C@H](C)[C@@H](O[C@H]2C[C@@](C)(OC)[C@@H](O)[C@H](C)O2)[C@H](C)[C@@H](O[C@@H]2O[C@H](C)C[C@H](N(C)C)[C@H]2O)[C@](C)(O)C[C@@H](C)CN(C)[C@H](C)[C@@H](O)[C@]1(C)O [Azithromycin, 9-deoxo-9a-aza-9a-methyl-9a-homoerythromycin A]",efficacy in the treatment of acne,"acne [1]; 500 mg 3, then 2 consecutive days per week, then once weekly, 4 weeks each",as effective as doxycycline
same,subjects who left the study due to gastrointestinal side effects,acne [1]; of 25 subjects administered azithromycin,two
same,adverse effects reported,"[2]; 25 mg per day for 6 weeks, migraine headache on day 21, deemed not related",only one adverse effect was reported
same,"typical antibiotic side effects (abdominal cramping, nausea, vomiting, diarrhea or vaginitis)",[2]; 25 mg per day or 80 mg every other day for 6 weeks,no typical antibiotic side effects reported
same,adverse effects reported,[2]; 80 mg every other day for 6 weeks,no adverse effects were reported
same,clearance of azithromycin from the pilosebaceous apparatus,[3]; after attaining saturation or near saturation levels,more than 28 days
same,Skin Concentration (median),"[3]; 40 mg/day, Day 0",0.00 ng/sample
same,Skin Concentration (median),"[3]; 40 mg/day, Day 21",0.34 ng/sample
same,Skin Concentration (median),"[3]; 40 mg/day, Day 42",0.59 ng/sample
same,Skin Concentration (median),"[3]; 40 mg/day, Day 70 (28 days after last dose)",0.00 ng/sample
same,Skin Concentration (median),"[3]; 80 mg/day, Day 0",0.00 ng/sample
same,Skin Concentration (median),"[3]; 80 mg/day, Day 21",1.34 ng/sample
same,Skin Concentration (median),"[3]; 80 mg/day, Day 42",1.68 ng/sample
same,Skin Concentration (median),"[3]; 80 mg/day, Day 70 (28 days after last dose)",0.47 ng/sample
same,Skin Concentration (median),"[3]; 120 mg/day, Day 0",0.00 ng/sample
same,Skin Concentration (median),"[3]; 120 mg/day, Day 21",1.65 ng/sample
same,Skin Concentration (median),"[3]; 120 mg/day, Day 42",1.99 ng/sample
same,Skin Concentration (median),"[3]; 120 mg/day, Day 70 (28 days after last dose)",0.50 ng/sample
same,time to effective steady state level of azithromycin in skin,"[3]; low doses, following commencement of therapy, no initial spike dose",≤ 20 days
same,"dosage at which the skin becomes saturated, theorized from the data",[3]; theorized from Table 3 data,about 95 mg/day
same,efficacy in the treatment of acne,acne [4],efficacious
same,gastrointestinal side effect rate,acne [4],about 10%
same,improvement in acne,"acne [5]; 500 mg day 1, then 250 mg/day for 4 days, from 1st and 15th of each month, 3 months",all patients treated with this azithromycin regimen showed improvement
same,subjects who experienced gastrointestinal side effects,acne [5]; same regimen,only one of twenty subjects
same,average maximum azithromycin plasma level,"[6]; 40 mg/day group, after administration on day 42",about 16 ng/ml
same,average maximum azithromycin plasma level,"[6]; 40 mg/day group, after initial dose",about 15 ng/ml
same,average azithromycin plasma level at steady state,[6]; 40 mg/day group,about 4 ng/ml
same,average maximum azithromycin plasma level,"[6]; 80 mg/day group, after administration on day 42",~54 ng/mL
same,average maximum azithromycin plasma level,"[6]; 80 mg/day group, after initial dose",~59 ng/mL
same,average azithromycin plasma level at steady state,[6]; 80 mg/day group,~10 ng/mL
same,average maximum azithromycin plasma level,"[6]; 120 mg/day group, after administration on day 42",~68 ng/mL
same,average maximum azithromycin plasma level,"[6]; 120 mg/day group, after initial dose",~45 ng/mL
same,average azithromycin plasma level at steady state,[6]; 120 mg/day group,~22 ng/mL
same,maximum plasma concentration compared with MIC,"[6]; day 0 and day 42, all dosages tested",less than the MIC of azithromycin for P. acnes
same,AUC,[6]; 40 mg,44.7 ng·h/mL
same,AUC(0-t),[6]; 40 mg,73.4 ng·h/mL
same,Cmax,[6]; 40 mg,7.08 ng/mL
same,AUC,[6]; 40 mg/day,132 ng·h/mL
same,Cmax,[6]; 40 mg/day,13.8 ng/mL
same,AUC,[6]; 80 mg,294 ng·h/mL
same,AUC(0-t),[6]; 80 mg,456 ng·h/mL
same,Cmax,[6]; 80 mg,60.3 ng/mL
same,AUC,[6]; 80 mg/day,528 ng·h/mL
same,Cmax,[6]; 80 mg/day,53.9 ng/mL
same,AUC,[6]; 120 mg,293 ng·h/mL
same,AUC(0-t),[6]; 120 mg,433 ng·h/mL
same,Cmax,[6]; 120 mg,57.9 ng/mL
same,AUC,[6]; 120 mg/day,752 ng·h/mL
same,Cmax,[6]; 120 mg/day,92.9 ng/mL
same,time of peak average plasma level,"[6]; post administration of initial dose, each treatment group",3 h
same,MIC90 against Streptococcus pyogenes,Streptococcus pyogenes,120 ng/mL
same,MIC against P. acnes,P. acnes,150 ng/mL
